These are literature values, as cited in patent publication US20040049352A1, “Designing modulators for glycosyltransferases” (priority 2000, published 2004).

This data set deals with T1, GlcNAc-T II (Rattus norvegicus, UniProt Q09326).
T1 sequence (Q09326 1-442): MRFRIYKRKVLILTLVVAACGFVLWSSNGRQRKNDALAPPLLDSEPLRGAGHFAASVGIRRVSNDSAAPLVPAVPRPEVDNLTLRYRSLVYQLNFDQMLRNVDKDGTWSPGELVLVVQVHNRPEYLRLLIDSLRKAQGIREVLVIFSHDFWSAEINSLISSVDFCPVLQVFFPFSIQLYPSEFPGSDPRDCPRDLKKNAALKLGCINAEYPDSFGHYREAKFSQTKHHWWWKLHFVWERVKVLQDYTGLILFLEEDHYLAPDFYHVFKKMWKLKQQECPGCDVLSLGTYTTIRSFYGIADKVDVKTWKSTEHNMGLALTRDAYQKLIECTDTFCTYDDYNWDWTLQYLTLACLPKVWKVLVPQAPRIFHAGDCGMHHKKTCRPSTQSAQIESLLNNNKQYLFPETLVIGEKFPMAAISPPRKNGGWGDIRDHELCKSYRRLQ
The following applies: inhibition studies.

`CC(=O)N[C@H]1[C@@H](OP(=O)(O)O)O[C@H](CO)[C@@H](O)[C@@H]1O` [GlcNAc-α-l-phosphate]: the “binding to the enzyme GlcNAc-T II” value was “neither GlcNAc nor GlcNAc-α-l-phosphate binds”.

As for `CC(=O)N[C@@H]1[C@@H](O)[C@H](O)[C@@H](CO)O[C@@H]1O` [GlcNAc, 2-acetamido-2-deoxy-α-D-glucopyranose], the “binding to the enzyme GlcNAc-T II” value was “neither GlcNAc nor GlcNAc-α-l-phosphate binds”. Turning to `CC(=O)N[C@H]1[C@@H](OP(=O)(O)OP(=O)(O)OC[C@H]2O[C@@H](n3ccc(=O)[nH]c3=O)[C@H](O)[C@@H]2O)O[C@H](CO)[C@H](O)[C@@H]1O` [UDP-GalNAc], the “binding to the enzyme GlcNAc-T II” value is “do bind”.
